Test results: US9045445B2, “Glycine transporter-1 inhibitors, methods of making them, and uses thereof” (Albany Molecular Research, Inc., priority 2010, dated 2015)
Counter-ions that a name gives are not always drawn. Like-named read-outs stand apart in the source and are kept apart here.

Legend:
[1] = target: T1, glycine transporter-2 (GlyT-2) (Homo sapiens, UniProt Q9Y345); assay: [14C]glycine uptake assay in HEK-GlyT-2 transfected cells; format: cell-based; details: HEK-GlyT-2 cells
T1 construct: expressed in transfected cells
T1 sequence (Q9Y345 1-797): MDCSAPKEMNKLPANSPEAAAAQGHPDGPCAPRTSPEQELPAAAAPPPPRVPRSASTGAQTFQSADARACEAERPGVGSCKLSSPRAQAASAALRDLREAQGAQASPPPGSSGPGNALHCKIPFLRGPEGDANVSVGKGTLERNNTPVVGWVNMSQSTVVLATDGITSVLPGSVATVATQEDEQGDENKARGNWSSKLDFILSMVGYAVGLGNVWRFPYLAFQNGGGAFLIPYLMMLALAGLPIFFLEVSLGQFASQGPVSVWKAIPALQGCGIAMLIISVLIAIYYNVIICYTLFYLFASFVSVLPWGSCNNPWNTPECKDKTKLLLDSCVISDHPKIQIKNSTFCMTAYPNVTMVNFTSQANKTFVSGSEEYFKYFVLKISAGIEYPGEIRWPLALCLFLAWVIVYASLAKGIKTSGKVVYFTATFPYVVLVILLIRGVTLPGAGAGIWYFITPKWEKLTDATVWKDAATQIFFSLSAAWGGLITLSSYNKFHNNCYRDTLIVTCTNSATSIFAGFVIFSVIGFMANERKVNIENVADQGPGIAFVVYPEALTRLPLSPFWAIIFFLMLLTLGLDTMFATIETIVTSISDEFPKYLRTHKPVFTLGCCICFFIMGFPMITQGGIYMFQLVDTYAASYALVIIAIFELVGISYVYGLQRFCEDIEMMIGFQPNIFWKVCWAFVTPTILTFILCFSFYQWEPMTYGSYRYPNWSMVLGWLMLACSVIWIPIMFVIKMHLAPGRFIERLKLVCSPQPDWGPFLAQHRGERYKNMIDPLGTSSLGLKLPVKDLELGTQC

[2] = target: T2, glycine transporter-1 (GlyT-1) (Homo sapiens, UniProt P48067); assay: [14C]glycine uptake assay in JAR cells endogenously expressing GlyT-1 (scintillation proximity); format: cell-based
T2 construct: JAR cells (ATCC#HTB-144), which endogenously express GlyT-1; host or cells: JAR human choriocarcinoma cells
T2 sequence (P48067 1-706): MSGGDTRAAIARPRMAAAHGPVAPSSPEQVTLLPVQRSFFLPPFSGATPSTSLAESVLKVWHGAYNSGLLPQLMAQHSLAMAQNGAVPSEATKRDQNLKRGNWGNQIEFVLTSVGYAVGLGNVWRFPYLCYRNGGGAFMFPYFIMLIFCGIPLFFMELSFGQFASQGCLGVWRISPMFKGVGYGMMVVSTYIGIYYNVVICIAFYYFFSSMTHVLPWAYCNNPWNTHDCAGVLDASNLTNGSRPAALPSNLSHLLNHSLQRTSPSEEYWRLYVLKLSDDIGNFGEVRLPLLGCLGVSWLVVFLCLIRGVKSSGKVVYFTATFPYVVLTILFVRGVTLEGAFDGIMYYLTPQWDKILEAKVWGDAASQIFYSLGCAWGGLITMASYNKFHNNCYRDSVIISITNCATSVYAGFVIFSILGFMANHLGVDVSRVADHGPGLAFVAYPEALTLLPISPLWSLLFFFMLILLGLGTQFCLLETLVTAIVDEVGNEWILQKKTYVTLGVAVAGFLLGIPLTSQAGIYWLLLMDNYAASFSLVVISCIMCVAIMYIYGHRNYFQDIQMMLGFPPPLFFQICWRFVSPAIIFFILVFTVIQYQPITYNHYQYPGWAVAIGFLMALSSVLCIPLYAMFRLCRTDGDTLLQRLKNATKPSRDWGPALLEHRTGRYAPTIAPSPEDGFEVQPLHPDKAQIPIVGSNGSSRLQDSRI
In short: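 IC50 comes from a four-parameter fit of nine-point, duplicate curves measuring inhibition of 5 μM [14C]glycine uptake, read by scintillation proximity after 3 h at 37 °C. Cells are human JAR, which express GlyT-1 endogenously, given 10 min compound pre-treatment in pH 7.4 buffer with 5 mM alanine and 0.75% DMSO.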

[3] = JAR cells, [14C]glycine 5 μM, 3 hour incubation, read-out: GlyT-1 IC50

| Structure (SMILES) | IC50 [1] | IC50 [2, 3] | IC50 ([2]; GlyT-1 IC50 (nM)) |
| --- | --- | --- | --- |
| CCCS(=O)(=O)N1CCN(C2(CNC(=O)c3ccc(OC(F)(F)F)cc3)CCCCC2)CC1 [compound 6, N-((1-(4-(Propylsulfonyl)piperazin-1-yl)cyclohexyl)methyl)-4-(trifluoromethoxy) benzamide Hydrochloride] | 28600 nM | 118 nM |  |
| CCCS(=O)(=O)N1CCN(C2(CNC(=O)c3ccc(C(F)(F)F)cc3)CCCCC2)CC1 [compound 7, N-((1-(4-(Propyl-sulfonyl)piperazin-1-yl)cyclohexyl)methyl)-4-(trifluoromethyl) benzamide Hydrochloride] | > 30000 nM | 126 nM |  |
| CCCS(=O)(=O)N1CCN(C2(CNC(=O)c3ccc(C#N)cc3)CCCCC2)CC1 [compound 17, 4-Cyano-N-((1-(4-(propylsulfonyl)piperazin-1-yl)cyclohexyl)methyl) benzamide Hydrochloride] | > 75000 nM | 647 nM |  |
| CCCS(=O)(=O)N1CCN(C2(CNC(=O)c3c(OC)cc(F)cc3SC)CCCCC2)CC1 [compound 20, 4-Fluoro-2-methoxy-6-(methylthio)-N-((1-(4-(propylsulfonyl)piperazin-1-yl)cyclohexyl)methyl)benzamide Hydrochloride] | > 75000 nM |  | 6 nM |
| CCCS(=O)(=O)N1CCN(C2(CNC(=O)c3c(OC)cc(C(F)(F)F)cc3C(F)(F)F)CCCCC2)CC1 [compound 21, 2-Methoxy-N-((1(1-(4-(propylsulfonyl)piperazin-1-yl)cyclohexyl)methyl)-4,6-bis(trifluoromethyl)benzamide Hydrochloride] | 39000 nM | 4 nM |  |
| CCCS(=O)(=O)N1CCN(C2(CNC(=O)c3cccc(C(F)(F)F)c3Cl)CCCCC2)CC1 [compound 22, 2-Chloro-N-((1-(4-(propylsulfonyl)piperazin-1-yl)cyclohexyl)methyl)-3-(trifluoromethyl) benzamide Hydrochloride] | 41300 nM |  | 77 nM |
| CCCS(=O)(=O)N1CCN(C2(CNC(=O)c3ccc(OC)cc3)CCCCC2)CC1 [compound 23, 4-Methoxy-N-((1-(4-(propylsulfonyl)piperazin-1-yl)cyclohexyl)methyl) benzamide Hydrochloride] | 61900 nM | 1140 nM |  |
| CCCS(=O)(=O)N1CCN(C2(CNC(=O)c3ccc(OCc4ccccc4)cc3)CCCCC2)CC1 [compound 27, 4-(Benzyloxy)-N-((1-(4-(propylsulfonyl)piperazin-1-yl)cyclohexyl)methyl) benzamide Hydrochloride] | 635 nM | 549 nM |  |
| CCCS(=O)(=O)N1CCN(C2(CNC(=O)c3c(C)cc(C)cc3C)CCCCC2)CC1 [compound 36, 2,4,6-Trimethyl-N-((1-(4-(propylsulfonyl)piperazin-1-yl)cyclohexyl)methyl) benzamide Hydrochloride] | > 75000 nM | 39 nM |  |
| CCCS(=O)(=O)N1CCN(C2(CNC(=O)c3ccc(-c4ccccc4)cc3)CCCCC2)CC1 [compound 38, N-((1-(4-(Propylsulfonyl)piperazin-1-yl)cyclohexyl)methyl) biphenyl-4-carboxamide Hydrochloride] | 1400 nM | 172 nM |  |

Second part, led by results:

| IC50 [1] | IC50 [2, 3] | Structure (SMILES) | IC50 ([2]; GlyT-1 IC50 (nM)) |
| --- | --- | --- | --- |
| ≥ 75000 nM | 43 nM | CCCS(=O)(=O)N1CCN(C2(CNC(=O)c3c(C(F)(F)F)ccc(Cl)c3F)CCCCC2)CC1 [compound 5, 3-Chloro-2-fluoro-N-((1-(4-(propylsulfonyl)piperazin-1-yl)cyclohexyl)methyl)-6-(trifluoromethyl)benzamide Hydrochloride] |  |
| > 75000 nM | 36 nM | CCCS(=O)(=O)N1CCN(C2(CNC(=O)c3ccccc3Cl)CCCCC2)CC1 [compound 8, 2-Chloro-N-((1-(4-(propylsulfonyl)piperazin-1-yl)cyclohexyl)methyl) benzamide Hydrochloride] |  |
| > 75000 nM | 22 nM | CCCS(=O)(=O)N1CCN(C2(CNC(=O)c3ccc(Cl)cc3C)CCCCC2)CC1 [compound 9, 4-Chloro-2-methyl-N-((1-(4-(propylsulfonyl)piperazin-1-yl)cyclohexyl)methyl) benzamide Hydrochloride] |  |
| > 75000 nM | 222 nM | CCCS(=O)(=O)N1CCN(C2(CNC(=O)c3ccc(Br)cc3)CCCCC2)CC1 [compound 11, 4-Bromo-N-((1-(4-(propylsulfonyl)piperazin-1-yl)cyclohexyl)methyl) benzamide Hydrochloride] |  |
| > 75000 nM | 63 nM | CCCS(=O)(=O)N1CCN(C2(CNC(=O)c3ccc(F)cc3Cl)CCCCC2)CC1 [compound 12, 2-Chloro-4-fluoro-N-((1-(4-(propylsulfonyl)piperazin-1-yl)cyclohexyl)methyl) benzamide Hydrochloride] |  |
| > 75000 nM | 1270 nM | CCCS(=O)(=O)N1CCN(C2(CNC(=O)Cc3ccc(Cl)cc3)CCCCC2)CC1 [compound 13, 2-(4-Chlorophenyl)-N-((1-(4-(propylsulfonyl)piperazin-1-yl)cyclohexyl)methyl) acetamide Hydrochloride] |  |
| > 75000 nM | 786 nM | CCCS(=O)(=O)N1CCN(C2(CNC(=O)c3ccc(F)cc3)CCCCC2)CC1 [compound 15, 4-Fluoro-N-((1-(4-(propylsulfonyl)piperazin-1-yl)cyclohexyl)methyl) benzamide Hydrochloride] |  |
| > 75000 nM | 28 nM | CCCS(=O)(=O)N1CCN(C2(CNC(=O)c3ccc(Br)cc3C)CCCCC2)CC1 [compound 18, 4-Bromo-2-methyl-N-((1-(4-(propylsulfonyl)piperazin-1-yl)cyclohexyl)methyl) benzamide Hydrochloride] |  |
| 39000 nM | 15 nM | CCCS(=O)(=O)N1CCN(C2(CNC(=O)c3c(C)cc(F)cc3OC)CCCCC2)CC1 [compound 19, 4-Fluoro-2-methoxy-6-methyl-N-((1-(4-(propyl-sulfonyl)piperazin-1-yl)cyclohexyl)methyl) benzamide Hydrochloride] |  |
| > 75000 nM | 767 nM | CCCS(=O)(=O)N1CCN(C2(CNC(=O)c3ccc(C)cc3)CCCCC2)CC1 [compound 25, 4-Methyl-N-((1-(4-(propylsulfonyl)piperazin-1-yl)cyclohexyl)methyl) benzamide Hydrochloride] |  |
| > 75000 nM | 523 nM | CCCS(=O)(=O)N1CCN(C2(CNC(=O)c3cccc(C(F)(F)F)c3)CCCCC2)CC1 [compound 28, N-((1-(4-(Propylsulfonyl)piperazin-1-yl)cyclohexyl)methyl)-3-(trifluoromethyl) benzamide Hydrochloride] |  |
| > 75000 nM | 766 nM | CCCS(=O)(=O)N1CCN(C2(CNC(=O)c3cccc(OC)c3)CCCCC2)CC1 [compound 29, 3-Methoxy-N-((1-(4-(propylsulfonyl)piperazin-1-yl)cyclohexyl)methyl) benzamide Hydrochloride] |  |
| > 75000 nM | 79 nM | CCCS(=O)(=O)N1CCN(C2(CNC(=O)c3ccc(C)cc3C)CCCCC2)CC1 [compound 30, 2,4-Dimethyl-N-((1-(4-(propylsulfonyl)piperazin-1-yl)cyclohexyl)methyl) benzamide Hydrochloride] |  |
| > 75000 nM | 71 nM | CCCS(=O)(=O)N1CCN(C2(CNC(=O)c3cc(Cl)ccc3Cl)CCCCC2)CC1 [compound 32, 2,5-Dichloro-N-((1-(4-(propylsulfonyl)piperazin-1-yl)cyclohexyl)methyl) benzamide Hydrochloride] |  |
